{"source": "patent US11160784B1", "about": "“Treatment of brain metastases using organonitro compound combination therapy” (EpicentRx, Inc., priority 2015, dated 2021)", "key": {"brain metastases [1]": {"test_system": "brain metastases", "assay": "Treatment of two human patients suffering from brain metastases with ABDNAZ in combination with whole brain radiation therapy", "format": "in vivo", "method": "Two human patients suffering from brain metastases were treated according to the protocol described in Part I below using ABDNAZ in combination with whole brain radiation therapy.\n(§1) ABDNAZ was administered intravenously in a formulation containing ABDNAZ, polyethylene glycol having a number-average molecular weight of 400 g/mol (PEG-400), water for injection, and NN-dimethylacetamide. A single dosage of ABDNAZ was 5 mg/m^2. During radiation therapy, (i) subjects were treated in the supine position, (ii) adequate immobilization and reproducibility of position was ensured using thermoplastic mask, (iii) the target volume included the whole brain, per the treating radiation oncologist, (iv) the lens of the eye was excluded from the beam using shielding or by beam collimation, (v) the dose of radiation is specified at central axis at mid-plane, (vi) whole brain radiotherapy was delivered with a daily fraction size of 3.0 Gy per fraction given 5 days a week for a total dose of 30 Gy, and (vii) radiation therapy was delivered using photon beam energies of 6 MV and an opposed lateral technique, where all fields are treated during each treatment session."}, "brain metastases [2]": {"test_system": "brain metastases", "assay": "Treatment of thirteen additional human patients suffering from brain metastases with ABDNAZ in combination with whole brain radiation therapy", "format": "in vivo", "conditions": "ABDNAZ 1.25 to 8.4 mg/m^2 IV + WBRT 30 Gy", "method": "Thirteen human patients suffering from brain metastases were treated according to the protocol described in Part I below using ABDNAZ in combination with whole brain radiation therapy.\nas §1, with “intravenously at a dosage” for “intravenously”, “the range” for “a formulation containing ABDNAZ, polyethylene glycol having a number-average molecular weight”, “1.25 mg/m^2 to 8.4” for “400 g/mol (PEG-400), water for injection, and NN-dimethylacetamide. A single dosage of ABDNAZ was 5”"}, "SCCVII tumor": {"test_system": "SCCVII tumor", "assay": "Impact of time between administration of ABDNAZ and radiation therapy on tumor growth delay", "format": "in vivo, mice", "conditions": "ABDNAZ 15 mg/kg IP single dose at -24 h, -2 h, concurrent, +2 h or +24 h; single local 7 Gy; FIG. 1", "method": "The impact of the time interval between administration of ABDNAZ and radiation therapy on tumor growth delay was evaluated in mice having a SCCVII tumor. Experimental procedures and results are described below.\nMice having a SCCVII tumor were treated with radiation therapy and ABDNAZ, where the length of time between administration of radiation therapy and ABDNAZ was varied. Radiation therapy was administered as a single local dose of 7 Gy of radiation. ABDNAZ was dosed in 5 groups of mice at 15 mg/kg IP as a single dose at one of the following time points: 24 hours prior to radiation therapy, 2 hours prior to radiation therapy, concurrent with radiation therapy, 2 hours after radiation therapy, or 24 hours after radiation therapy."}, "[3]": {"conditions": "first patient, four weeks after completion of ABDNAZ + WBRT"}}}
{"compound": "O=C(CBr)N1CC([N+](=O)[O-])([N+](=O)[O-])C1", "note": "[ABDNAZ]", "values": [{"measurement": "k^trans by dynamic contrast-enhanced brain MRI", "setting": "brain metastases [1]; first patient (melanoma brain metastases), 24 hours after first dose of ABDNAZ 5 mg/m^2 IV", "result": "decrease in k^trans in 4 of 5 lesions"}, {"measurement": "size of new lesion discovered", "setting": "brain metastases [1]; first patient, 4 months after completion of ABDNAZ + WBRT, possibly seeding from systemic disease", "result": 5, "unit": "mm"}, {"measurement": "tolerability", "setting": "brain metastases [1]; first patient, ABDNAZ 5 mg/m^2 IV + WBRT 30 Gy", "result": "well-tolerated with mild, transient infusion site pain, and without any signs of systemic or neurologic toxicity"}, {"measurement": "visual symptoms", "setting": "brain metastases [1]; first patient, by the end of treatment with ABDNAZ + WBRT", "result": "improved visual symptoms with near resolution of visual field-deficit"}, {"measurement": "edema associated with lesions", "setting": "brain metastases [1]; first patient, four months after completion of ABDNAZ + WBRT", "result": "decrease in associated edema of all lesions"}, {"measurement": "physical function, Barthel ADL index", "setting": "brain metastases [1]; [3]", "result": "unchanged from baseline"}, {"measurement": "size of brain lesions by contrasted brain MRI", "setting": "brain metastases [1]; [3]", "result": "decrease in the size of the largest right and left occipital masses"}, {"measurement": "visual symptoms", "setting": "brain metastases [1]; first patient, within 48 hours of receiving the first dose of radiation therapy, ABDNAZ 5 mg/m^2 IV + WBRT", "result": "began to improve"}, {"measurement": "number of sub-centimeter metastases with complete disappearance", "setting": "brain metastases [1]; second patient, 3 months after end of ABDNAZ + WBRT", "result": 3}, {"measurement": "lesion response on serial re-imaging", "setting": "brain metastases [1]; second patient, at least 18 brain metastases at baseline, ABDNAZ + WBRT", "result": "response in all 18 visualized lesions"}, {"measurement": "infusion site pain", "setting": "brain metastases [1]; second patient, during treatment", "result": "no significant infusion site pain"}, {"measurement": "k^trans by DCE-MRI", "setting": "brain metastases [1]; second patient, largest evaluable lesion, 24 hours after first administration of ABDNAZ", "result": "slight reduction in k^trans"}, {"measurement": "physical function, Barthel ADL index", "setting": "brain metastases [1]; second patient, one month after end of ABDNAZ + WBRT", "result": "unchanged from baseline"}, {"measurement": "adverse events", "setting": "brain metastases [2]", "result": "No adverse events were observed"}, {"measurement": "patients with decrease of at least 30% in sum of longest diameters of target lesions and absolute decrease of at least 5 mm in at least one target lesion", "setting": "brain metastases [2]", "result": "Approximately 50%"}, {"measurement": "tumor growth delay versus time interval between ABDNAZ and radiation therapy", "setting": "SCCVII tumor", "result": "Maximum tumor growth delay occurred when ABDNAZ was administered minutes before or concomitant with radiation therapy"}]}
